We go through 2 compounds from US8784795B2, “Methods for determining personalized treatment compositions for prostate cancer and breast cancer” (Caldera Health Ltd., priority 2012, dated 2014).

One experiment concerns blood cells. Put plainly: Analysis of blood cells treated with Leukine in vivo for changes in perforin levels.
From the text: […]

A further experiment deals with prostate cancer. The note with it: patients; cited from earlier work.
Experiment [1] concerns hormone refractory prostate cancer. The note with it: clinical trial; cited from earlier work.

Turning to “Leukine®: granulocyte-macrophage colony stimulating factor (GM-CSF; also known as sargramostim; trade name Leukine®)”, in the experiment on blood cells, the “change in perforin levels of blood cells” value is “major increases”. In addition, in the experiment with prostate cancer, the “control of prostate cancer” value is on record as “long-term control of prostate cancer in a substantial number of patients”.

As for `CC(=O)N1CCN(c2ccc(OCC3COC(Cn4ccnc4)(c4ccc(Cl)cc4Cl)O3)cc2)CC1` (stereo not drawn) [ketoconazole], in experiment [1], the response rate is recorded as 50%.
